Assay results taken from patent US20080090893A1, “Medicinal Composition for Prevention of Transition to Operative Treatment for Prostatic Hypertrophy” (Kissei Pharmaceutial Co., Ltd., priority 2004, published 2008).
Counter-ions that a name gives are not always drawn.

Tests used:
[1] = system: patients of benign prostatic hyperplasia who are subject to surgical therapy (overall severity moderate and severe); experiment: Long-term administration test, 52 weeks (maximum flow rate Qmax); assay type: in vivo; settings: 4 mg silodosin twice a day oral
Text: Based on the results from a long-term administration test in patients of benign prostatic hyperplasia, effects of silodosin on objective symptoms of patients who are subject to surgical therapy were examined. As the patients who are subject to surgical therapy, patients whose overall severities before administration were “moderate” and “severe” according to the criteria for judging overall severity described in the above Table 1 were extracted.
Objects: 229 patients who are subject to surgical therapy for benign prostatic, hyperplasia
Analyzed groups: 101 severe patients (reduced to 2 mg/once in 9 cases among them), 128 moderate patients (reduced to 2 mg/once in 17 cases among them)

[2] = system: patients of benign prostatic hyperplasia who are subject to surgical therapy (overall severity severe); experiment: Placebo-controlled, parallel groups-comparing double blind trial, 12 weeks oral administration (I-PSS total score, QOL score); assay type: in vivo
Protocol: Based on the results of a placebo-controlled, parallel groups-comparing double blind trial carried out in patients of benign prostatic hyperplasia, clinical effects of silodosin and tamsulosin hydrochloride in patients who are subject to surgical therapy were evaluated. As the patients who are subject to surgical therapy, patients whose overall severity before administration was “severe” based on the criteria for judging overall severity (Non-patent Reference 3) were extracted.
Objects: 147 patients who are subject to surgical therapy for benign prostatic hyperplasia
Administration method: oral administration for 12 weeks
Administered groups: Silodosin group (4 mg silodosin/once, twice a day, 63 patients), Tamsulosin group (0.2 mg tamsulosin hydrochloride, once a day, 55 patients) and Placebo group (placebo drug, 29 patients).
Primary endpoints: I-PSS total score, QOL score
Criteria for judging overall severity: in the severity of respective judging items shown in Table 1, the overall severity is regarded as “severe” when “severe” is present in 2 items or more. In this connection, the Qmax in the table means maximum flow rate (mL/second), RU means residual urine volume (mL) and PV means estimated prostate volume (mL) by ultrasonic tomography.
I-PSS items questioned • (1) Sensation of residual urine
The scores of (1) to (6) are as follows.
Not at all: 0 point, less than 1 time in 5: 1 point, less than 1 time in 2: 2 points, about 1 time in 2: 3 points, more than 1 time in 2: 4 points, almost always: 5 points. • (7) Nocturia
None: 0 point, 1 time: 1 point, 2 times: 2 points, 3 times: 3 points, 4 times: 4 points, 5 times or more: 5 points.
Very satisfied 0 point, satisfied: 1 point, generally satisfied: 2 points, neither satisfied nor unsatisfied: 3 points, a little unsatisfied: 4 points, unsatisfied: 5 points, very unsatisfied: 6 points.
Regarding the case of patients whose overall severity before administration was severe based on the criteria for judging overall severity (Non-patent Reference 3), changes in I-PSS total score and QOL score at the final evaluation were compared. The results are shown in Table 2 and Table 3, respectively.
Next, the effect of each administration group to improve the severity of I-PSS total score was evaluated in the patients of benign prostatic hyperplasia whose overall severity before administration was severe.

[3] = severity of I-PSS total score, severe patients
[4] = overall severity before administration severe, oral, silodosin 4 mg twice a day, tamsulosin hydrochloride 0.2 mg once a day

SMILES | Maximum flow rate (Qmax), change after 52 weeks (mean ± SD) ([1]; Moderate group) [mL/s] | Maximum flow rate (Qmax), change after 52 weeks (mean ± SD) ([1]; Moderate group, listed as silodosin) [mL/s] | Maximum flow rate (Qmax), change after 52 weeks (mean ± SD) ([1]; Severe group) [mL/s] | Maximum flow rate (Qmax), change after 52 weeks (mean ± SD) ([1]; Severe group, listed as silodosin) [mL/s] | Severity of subjective symptoms at the end, Mild (0-7), number of patients [2, 3] | Severity of subjective symptoms at the end, Moderate (8-19), % of patients [2, 3] | Severity of subjective symptoms at the end, Moderate (8-19), number of patients [2, 3] | Severity of subjective symptoms at the end, Severe (20-35), % of patients [2, 3] | Severity of subjective symptoms at the end, Severe (20-35), number of patients [2, 3] | Change in I-PSS at the end Mean ± standard deviation [2, 4] | Change in QOL at the end Mean ± SD [2, 4] | Severity of subjective symptoms at the end, Mild (0-7), % of patients [2, 3]
C[C@H](Cc1cc2c(c(C(N)=O)c1)N(CCCO)CC2)NCCOc1ccccc1OCC(F)(F)F [Silodosin, (−)-1-(3-hydroxypropyl)-5-((2R)-2-{[2-({2-[(2,2,2-trifluoroethyl)oxy]phenyl}oxy)ethyl]amino}propyl)-2,3-dihydro-1H-indole-7-carboxamide] | 2.3 ± 5.3 | 2.3 | 3.2 ± 4.9 | 3.2 | 24 | (52.4%) | 33 | (9.5%) | 6 |  |  | 
CCOc1ccccc1OCCN[C@H](C)Cc1ccc(OC)c(S(N)(=O)=O)c1 [Tamsulosin, tamsulosin hydrochloride] |  |  |  |  | 12 | (61.8%) | 34 | (16.4%) | 9 | −8.6 ± 6.2^3) N.S. | −1.5 ± 1.3^3) N.S. | (21.8%)
